According to ChEMBL document CHEMBL3580542, “Inhibitors of the PD-1/PD-L1 Pathway Can Mobilize the Immune System: An Innovative Potential Therapy for Cancer and Chronic Infections” (ACS Med Chem Lett, 2015):

Molecular target: Programmed cell death 1 ligand 1 (Homo sapiens, UniProt Q9NZQ7)
Test: Binding affinity to His-tagged PD-L1 (unknown origin) assessed as inhibition of interaction with PD1 preincubated for 15 mins followed by PD1 addition measured after 15 mins by HTRF assay

Programmed cell death 1 ligand 1, sequence (Q9NZQ7 whole entry): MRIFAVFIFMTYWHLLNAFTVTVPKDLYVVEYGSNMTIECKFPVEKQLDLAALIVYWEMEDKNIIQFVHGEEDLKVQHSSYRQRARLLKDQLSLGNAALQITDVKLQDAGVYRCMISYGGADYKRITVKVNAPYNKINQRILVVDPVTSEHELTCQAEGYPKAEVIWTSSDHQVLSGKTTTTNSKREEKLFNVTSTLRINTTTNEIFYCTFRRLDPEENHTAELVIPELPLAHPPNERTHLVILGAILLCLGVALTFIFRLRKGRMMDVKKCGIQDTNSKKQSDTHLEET

| Structure (SMILES) | IC50 |
| --- | --- |
| Cc1cc(CN2CCC(C(=O)NCCO)CC2)ccc1OCc1cccc(-c2ccccc2)c1C | 110 nM |
| COc1cc(OCc2cccc(-c3ccccc3)c2C#N)cc(OC)c1CN1CCCC[C@H]1C(=O)O | 6 nM |
